This is an account of results in publication PMC9230671, “Fluorochrome Selection for Imaging Intraoperative Ovarian Cancer Probes” (Pharmaceuticals, 2022).

pIC50: −log10 of the molar value.

Data set [1] has as its target T1, COX-1 (Ovis aries, UniProt P05979).
T1 construct: purchased Cayman Chemicals (bought through Sigma-Aldrich) 560131
T1 sequence (P05979 25-600): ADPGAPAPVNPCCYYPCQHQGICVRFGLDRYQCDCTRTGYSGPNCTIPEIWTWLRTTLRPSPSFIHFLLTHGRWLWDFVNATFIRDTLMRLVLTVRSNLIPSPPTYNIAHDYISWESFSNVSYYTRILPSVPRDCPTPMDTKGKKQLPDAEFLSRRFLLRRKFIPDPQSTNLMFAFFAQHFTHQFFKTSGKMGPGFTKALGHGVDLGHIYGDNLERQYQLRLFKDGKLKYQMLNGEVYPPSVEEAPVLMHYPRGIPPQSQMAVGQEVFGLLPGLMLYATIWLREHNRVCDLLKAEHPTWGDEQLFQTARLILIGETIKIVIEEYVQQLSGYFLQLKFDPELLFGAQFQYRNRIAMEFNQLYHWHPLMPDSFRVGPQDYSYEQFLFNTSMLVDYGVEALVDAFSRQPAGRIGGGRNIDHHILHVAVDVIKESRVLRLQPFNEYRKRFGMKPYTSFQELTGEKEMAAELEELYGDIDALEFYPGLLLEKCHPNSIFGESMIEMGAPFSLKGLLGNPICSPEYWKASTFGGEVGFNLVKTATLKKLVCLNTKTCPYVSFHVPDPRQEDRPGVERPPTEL
Nature of the data set: COX-1 inhibition, COX (ovine/human) inhibitor screening assay kit. The class given is biochemical. The protocol: Cell culture reagents were purchased from Euroclone (Milan, Italy). COX (ovine/human) inhibitor screening assay kit (Catalog No. 560131, Cayman Chemicals, Ann Arbor, MI, USA) was purchased from Sigma-Aldrich, Burlington, MA, USA. […] The other reagents were purchased from Sigma-Aldrich, Burlington, MA, USA.
The COX-1/2 inhibition screening experiments were carried out according to the manufacturer’s instructions. The plate was incubated for 60 min at r.t. under shaking and read with the Tecan Infinite 200 Microplate Reader at λ = 405 nm.
The graph between percent inhibition of the enzyme and corresponding concentration of the compound provided IC50 values for the probe compounds.

Data set [2] deals with OVCAR-3 xenograft tumors. Description: NIR fluorescence imaging / biodistribution in OVCAR-3 s.c. xenograft models. The class given is in vivo, NSG mice. The settings on record: for tumor-to-background ratio (TBR): OVCAR-3 s.c. NSG mice, 100 µL of 500 µM i.v., after 24 h; for clearance pattern (organ): ex vivo NIR FLI 6 h after 500 µM i.v., OVCAR-3 mice. The protocol:
To assess the capacity of both conjugates to visualize ovarian xenograft tumors “in vivo” and evaluate accumulation and clearance behavior of the conjugates, kinetic imaging was performed at six different time-points. Subcutaneously engrafted OVCAR-3 NSG mice were injected with 100 µL of 500 µM RR11 or 23 (MSA14) intravenously into the tail vein (Figure 3). […] Tumor-specific fluorescence was obtained 4, 6, and 24 h after RR11 injection, with a mean tumor-to-background ratio (TBR) of 1.74 after 24 h. In OVCAR-3 bearing NSG mice (n = 3), injected with 23 (MSA14), high liver signals (ventral view, #) were obtained at all time points with high compound accumulation in the tumors at 24 h (*, Figure 3B). The best TBR of 1.44 was achieved after 24 h. Residual background fluorescence was predominantly observed in the spine and limbs as well as in the excretion organs.
Following the biodistribution over time “in vivo”, we assessed the accumulation of the compounds “ex vivo” at 6 h. In Figure 4A, RR11-induced tumor-specific signal, along with high fluorescence in kidneys, gallbladder, stomach, and lungs, can be observed. […] The higher gastrointestinal fluorescence signal in RR11-imaged mice can derive from auto-fluorescent alfalfa containing diet, which is acquired in the lower wavelength of RR11. The main differences between the accumulation and clearance behavior are marked with an arrow, indicating two different clearance patterns of the compounds through liver (23, MSA14) and kidney (RR11). Finally, the fluorescence of 23 (MSA14) was evaluated in a clinically compatible intraoperative setting using the FLARE® system to assess the suitability of the COX-1 targeted NIR compound for FIGS and its potential clinical translation (Figure 4B). The “in vivo” and “ex vivo” intraoperative images confirm the results from Figure 3B and Figure 4A. […] While the tumor fluorescence intensities were higher than those of kidneys, the fluorescence intensities in the gallbladder and lungs were the highest.
Female NOD-scid IL2rγ^null (NSG) mice, aged 6 to 25 weeks were maintained under defined floral conditions and no more than five mice were housed in individually ventilated (HEPA-filtered air) cages, kept on a 12 h dark/night schedule at a constant temperature of 21 °C and at 50% relative humidity at the University of Bergen’s animal facility. Observations of body weight and general condition including activity levels, appearance, and food intake were monitored twice weekly, and humane endpoints were defined with the use of score sheets. When indicated, animals were euthanized according to institutional guidelines. […]

`CCN1/C(=C/C=C/C=C/C=C/C2=[N+](CCCCCC(=O)NCCCCNC(=O)Cc3onc(-c4ccc(OC)cc4)c3-c3ccc(OC)cc3)c3ccc4ccccc4c3C2(C)C)C(C)(C)c2c1ccc1ccccc21` [23 (MSA14), 3-(6-(4-(2-(3,4-Bis(4-methoxyphenyl)isoxazole-5-yl)acetamido)butyl)amino-6-oxohexyl)-2-[7-(1,3-dihydro-1,1-dimethyl-3-ethyl-2H-benz[e]indolin-2-yl-idene)-1,3,5-heptatrienyl]-1,1-dimethyl-3-(6-carboxilato-hexyl)-1H-benz[e]indolium chloride] had a pIC50 in data set [1] of 7.06. Further, in data set [1] (at 50 µM compound final concentration, read-out: COX-1 % inhib.), the inhibition at 50 µM is 57%. Moreover, in data set [2], the “tumor-to-background ratio (TBR)” value was found to be 1.44 and the “clearance pattern (organ)” value is “liver”.

With `COc1ccc(-c2noc(CC(=O)NCCCCNc3cc4[o+]c5cc(N(C)C)ccc5nc4c4ccccc34)c2-c2ccc(OC)cc2)cc1.[Cl-]` [RR11, N-[4-(9-dimethylimino-9H-benzo[a]phenoxazin-5-ylamino)butyl]-2-(3,4-bis(4-methoxyphenyl)isoxazol-5-yl)acetamide chloride, reference compound], in data set [1], the pIC50 is 7.49 and the “SI (selectivity index)” value was 75. In addition, the COX-1 % inhib. in data set [1] (at 50 µM compound final concentration) is recorded as 83%. Moreover, in data set [2], the “tumor-to-background ratio (TBR)” value was determined as 1.74 and the “clearance pattern (organ)” value is “kidney”.
